From patent publication US20250368635A1, “HETEROARYL DERIVATIVE COMPOUND, AND USES THEREOF” (VORONOI, INC., priority 2022, published 2025)

System: Ba/F3 cells expressing EGFR L858R/C797S (EGFR LC)
Assay: Inhibition of proliferation of Ba/F3 cells expressing EGFR L858R/C797S (CellTiter-Glo, 72 h)
Format: cell-based
Conditions: Mus musculus, BaF3, 72 hours treatment
Protocol: (§1) The following experiment was performed to evaluate the inhibitory activity of the compounds according to the present invention on the proliferation of Ba/F3 cells expressing EGFR Del19/C797S (EGFR DC) and EGFR L858R/C797S (EGFR LC) mutations.
(§2) Ba/F3 cells were cultured using medium (RPMI-1640) containing 10% fetal bovine serum (FBS) and 5 ng/ml IL-3 (R&D Systems). The transduced Ba/F3 cells were cultured by adding 1 μg/ml puromycin (Invitrogen) to the same medium.
(§3) 24 hours prior to treatment with compounds, 3,000 to 5,000 cells were seeded on a well plate (white clear bottom 96 well plate, Corning). The compounds were diluted in dimethyl sulfoxide (3-fold dilution, total of 12 concentrations) and injected at 1 μl each so that the final concentration was 0.2 nM to 5 μM. After 72 hours post treatment with compounds, living cells were stored at room temperature for 10 minutes using CellTiter-Glo luminescent cell-viability reagent (Promega), and the luminescence intensity thereof was measured using a reader (Synergy Neo, Biotek). Each test was repeated three times. The result values were calculated as a cell growth rate (%) compared to the control group. A graph was created using the GraphPad Prism version 8.3.0 program, and GI50 values were calculated.

Row | GI50 | SMILES
1 | < 100 nM | COc1cc(N2CCC3(CC2)CCN(C(C)(C)CF)CC3)c(-c2cn(C)nc2F)cc1Nc1cc(N2OCC[C@@H]2c2cccc(F)c2F)ncn1 [Example 1, (R)-6-(3-(2,3-difluorophenyl)isoxazolidin-2-yl)-N-(5-(3-fluoro-1-methyl-1H-pyrazol-4-yl)-4-(9-(1-fluoro-2-methylpropan-2-yl)-3,9-diazaspiro[5.5]undecan-3-yl)-2-methoxyphenyl)pyrimidin-4-amine]
2 | < 100 nM | COc1cc(N2CCC3(CC2)CCN(C(C)(C)CF)CC3)c(-c2cnn(C)c2)cc1Nc1cc(N2OCC[C@@H]2c2ccccc2)ncn1 [Example 10, (R)-N-(4-(9-(1-fluoro-2-methylpropan-2-yl)-3,9-diazaspiro[5.5]undecan-3-yl)-2-methoxy-5-(1-methyl-1H-pyrazol-4-yl)phenyl)-6-(3-phenylisoxazolidin-2-yl)pyrimidin-4-amine]
3 | < 100 nM | COc1cc(N2CC3(CCN(C(C)(C)CF)CC3)C2)c(-c2cnn(C)c2)cc1Nc1cc(N2OCC[C@@H]2c2cccc(F)c2F)ncn1 [Example 14, (R)-6-(3-(2,3-difluorophenyl)isoxazolidin-2-yl)-N-(4-(7-(1-fluoro-2-methylpropan-2-yl)-2,7-diazaspiro[3.5]nonan-2-yl)-2-methoxy-5-(1-methyl-1H-pyrazol-4-yl)phenyl)pyrimidin-4-amine]

System: Ba/F3 cells expressing EGFR Del19/C797S (EGFR DC)
Assay: Inhibition of proliferation of Ba/F3 cells expressing EGFR Del19/C797S (CellTiter-Glo, 72 h)
Format: cell-based
Conditions: Mus musculus, BaF3, 72 hours treatment
Protocol: as §1, §2, §3

Row | GI50 | SMILES
4 | < 100 nM | COc1cc(N2CCC3(CC2)CCN(C(C)(C)CF)CC3)c(-c2cn(C)nc2F)cc1Nc1cc(N2OCC[C@@H]2c2cccc(F)c2F)ncn1 [Example 1, (R)-6-(3-(2,3-difluorophenyl)isoxazolidin-2-yl)-N-(5-(3-fluoro-1-methyl-1H-pyrazol-4-yl)-4-(9-(1-fluoro-2-methylpropan-2-yl)-3,9-diazaspiro[5.5]undecan-3-yl)-2-methoxyphenyl)pyrimidin-4-amine]
5 | < 100 nM | COc1cc(N2CCC3(CC2)CCN(C(C)(C)CF)CC3)c(-c2cnn(C)c2)cc1Nc1cc(N2OCC[C@@H]2c2ccccc2)ncn1 [Example 10, (R)-N-(4-(9-(1-fluoro-2-methylpropan-2-yl)-3,9-diazaspiro[5.5]undecan-3-yl)-2-methoxy-5-(1-methyl-1H-pyrazol-4-yl)phenyl)-6-(3-phenylisoxazolidin-2-yl)pyrimidin-4-amine]
6 | < 100 nM | COc1cc(N2CC3(CCN(C(C)(C)CF)CC3)C2)c(-c2cnn(C)c2)cc1Nc1cc(N2OCC[C@@H]2c2cccc(F)c2F)ncn1 [Example 14, (R)-6-(3-(2,3-difluorophenyl)isoxazolidin-2-yl)-N-(4-(7-(1-fluoro-2-methylpropan-2-yl)-2,7-diazaspiro[3.5]nonan-2-yl)-2-methoxy-5-(1-methyl-1H-pyrazol-4-yl)phenyl)pyrimidin-4-amine]
7 | 100 to 1000 nM | COc1cc(N2CCN(C)CC2)c(-c2ccsc2)cc1Nc1cc(N2OCC[C@@H]2c2cccc(F)c2F)ncn1 [Example 76, (R)-6-(3-(2,3-difluorophenyl)isoxazolidin-2-yl)-N-(2-methoxy-4-(4-methylpiperazin-1-yl)-5-(thiophen-3-yl)phenyl)pyrimidin-4-amine]
8 | 100 to 1000 nM | COc1cc(N2CCN(C)CC2)c(-c2cnc3ccccc3c2)cc1Nc1cc(N2OCC[C@@H]2c2cccc(F)c2F)ncn1 [Example 78, (R)-6-(3-(2,3-difluorophenyl)isoxazolidin-2-yl)-N-(2-methoxy-4-(4-methylpiperazin-1-yl)-5-(quinolin-3-yl)phenyl)pyrimidin-4-amine]
9 | 100 to 1000 nM | COc1cc(N2CCN(C)CC2)c(-c2ccncc2)cc1Nc1cc(N2OCC[C@@H]2c2cccc(F)c2F)ncn1 [Example 79, (R)-6-(3-(2,3-difluorophenyl)isoxazolidin-2-yl)-N-(2-methoxy-4-(4-methylpiperazin-1-yl)-5-(pyridin-4-yl)phenyl)pyrimidin-4-amine]
10 | 100 to 1000 nM | COc1cc(N2CCC3(CC2)CN(C)CCO3)c(-c2cnn(C)c2)cc1Nc1cc(N2OCC[C@@H]2c2cccc(F)c2F)ncn1 [Example 83, (R)-6-(3-(2,3-difluorophenyl)isoxazolidin-2-yl)-N-(2-methoxy-5-(1-methyl-1H-pyrazol-4-yl)-4-(4-methyl-1-oxa-4,9-diazaspiro[5.5]undecan-9-yl)phenyl)pyrimidin-4-amine]
11 | 100 to 1000 nM | COc1cc(N2CCSCC2)c(-c2cnn(C)c2)cc1Nc1cc(N2OCC[C@@H]2c2cccc(F)c2F)ncn1 [Example 85, (R)-6-(3-(2,3-difluorophenyl)isoxazolidin-2-yl)-N-(2-methoxy-5-(1-methyl-1H-pyrazol-4-yl)-4-thiomorpholinophenyl)pyri-midin-4-amine]
12 | 100 to 1000 nM | Cn1cc(-c2cc(Nc3cc(N4OCC[C@@H]4c4cccc(F)c4F)ncn3)c3c(c2N2CCOCC2)OCCO3)cn1 [Example 96, (R)-6-(3-(2,3-difluorophenyl)isoxazolidin-2-yl)-N-(7-(1-methyl-1H-pyrazol-4-yl)-8-morpholino-2,3-dihydrobenzo[b][1,4]dioxin-5-yl)pyrimidin-4-amine]
13 | < 100 nM | COc1cc(N2CCN(C)CC2)c(-c2cnn(C)c2)cc1Nc1cc(N2OCC[C@@H]2c2cccc(F)c2F)ncn1 [Example 98, (R)-6-(3-(2,3-difluorophenyl)isoxazolidin-2-yl)-N-(2-methoxy-5-(1-methyl-N-pyrazol-4-yl)-4-(4-methylpiperazin-1-yl)phenyl)pyrimidin-4-amine]
14 | < 100 nM | COc1cc(N2CCN(C)CC2)c(-c2cnn(C3CC3)c2)cc1Nc1cc(N2OCC[C@@H]2c2cccc(F)c2F)ncn1 [Example 99, (R)-N-(5-(1-cyclopropyl-1H-pyrazol-4-yl)-2-methoxy-4-(4-methylpiperazin-1-yl)phenyl)-6-(3-(2,3-difluorophenyl)isoxazolidin-2-yl)pyrimidin-4-amine]
15 | < 100 nM | COc1cc(N2CCC(N3CC(OC)C3)CC2)c(-c2cnn(C)c2)cc1Nc1cc(N2OCC[C@@H]2c2cccc(F)c2F)ncn1 [Example 102, (R)-6-(3-(2,3-difluorophenyl)isoxazolidin-2-yl)-N-(2-methoxy-4-(4-(3-methoxyazetidin-1-yl)piperidin-1-yl)-5-(1-methyl-1H-pyrazol-4-yl)phenyl)pyrimidin-4-amine]
16 | < 100 nM | COc1cc(N2CCC3(CC2)CCN(C(C)(C)CF)CC3)c(-c2cn(C)nc2F)cc1Nc1cc(N2OCC[C@@H]2c2ccccc2)ncn1 [Example 103, (R)-N-(5-(3-fluoro-1-methyl-1H-pyrazol-4-yl)-4-(9-(1-fluoro-2-methylpropan-2-yl)-3,9-diazaspiro[5.5]undecan-3-yl)-2-methoxyphenyl)-6-(3-phenylisoxazolidin-2-yl)pyrimidin-4-amine]
17 | 100 to 1000 nM | CCOc1cc(N2C[C@@H](C)O[C@@H](C)C2)c(-c2cnn(C)c2)cc1Nc1cc(N2OCC[C@@H]2c2cccc(F)c2F)ncn1 [Example 104, 6-((R)-3-(2,3-difluorophenyl)isoxazolidin-2-yl)-N-(4-((25,6R)-2,6-dimethylmorpholino)-2-ethoxy-5-(1-methyl-1H-pyrazol-4-yl)phenyl)pyrimidin-4-amine]
18 | 100 to 1000 nM | CC(C)Oc1cc(N2C[C@H](C)O[C@@H](C)C2)c(-c2cnn(C)c2)cc1Nc1cc(N2OCC[C@@H]2c2cccc(F)c2F)ncn1 [Example 105, 6-((R)-3-(2,3-difluorophenyl)isoxazolidin-2-yl)-N--(4-((2S,6S)-2,6-dimethylmorpholino)-2-isopropoxy-5-(1-methyl-1H-pyrazol-4-yl)phenyl)pyrimidin-4-amine]
19 | 100 to 1000 nM | COc1cc(N2C[C@H](C)O[C@@H](C)C2)c(-c2cnn(C)c2)cc1Nc1cc(N2OCC[C@@H]2c2cccc(F)c2F)ncn1 [Example 106, 6-((R)-3-(2,3-difluorophenyl)isoxazolidin-2-yl)-N-(4-((2S,6S)-2,6-dimethylmorpholino)-2-methoxy-5-(1-methyl-1H-pyrazol-4-yl)phenyl)pyrimidin-4-amine]
20 | 100 to 1000 nM | COc1cc(N2C[C@@H](C)O[C@@H](C)C2)c(-c2cnn(C)c2)cc1Nc1cc(N2OCC[C@@H]2c2cccc(F)c2F)ncn1 [Example 107, 6-((R)-3-(2,3-difluorophenyl)isoxazolidin-2-yl)-N-(4-((2S,6R)-2,6-dimethylmorpholino)-2-methoxy-5-(1-methyl-1H-pyrazol-4-yl)phenyl)pyrimidin-4-amine]
21 | 100 to 1000 nM | COc1cc(N2CCO[C@H](C)C2)c(-c2cnn(C)c2)cc1Nc1cc(N2OCC[C@@H]2c2cccc(F)c2F)ncn1 [Example 108, 6-((R)-3-(2,3-difluorophenyl)isoxazolidin-2-yl)-N-(2-methoxy-5-(1-methyl-1H-pyrazol-4-yl)-4-((R)-2-methylmorpholino)phenyl)py-rimidin-4-amine]
22 | < 100 nM | COc1cc(N2CCC(C)(OC)CC2)c(-c2cnn(C)c2)cc1Nc1cc(N2OCC[C@@H]2c2cccc(F)c2F)ncn1 [Example 109, (R)-6-(3-(2,3-difluorophenyl)isoxazolidin-2-yl)-N-(2-methoxy-4-(4-methoxy-4-methylpiperidin-1-yl)-5-(1-methyl-1H-pyrazol-4-yl)phenyl)pyrimidin-4-amine]
23 | 100 to 1000 nM | COc1cc(N2CCC(CN(C)C(C)(C)CF)CC2)c(-c2cnn(C)c2)cc1Nc1cc(N2OCC[C@@H]2c2cccc(F)c2F)ncn1 [Example 110, (R)-6-(3-(2,3-difluorophenyl)isoxazolidin-2-yl)-N-(4-(4-(((1-fluoro-2-methylpropan-2-yl)(methyl)amino)methyl)pi-peridin-1-yl)-2-methoxy-5-(1-methyl-1H-pyrazol-4-yl)phenyl)pyrimidin-4-amine]
24 | 100 to 1000 nM | COc1cc(N2CC3(CCOCC3)C2)c(-c2cnn(C)c2)cc1Nc1cc(N2OCC[C@@H]2c2cccc(F)c2F)ncn1 [Example 111, (R)-6-(3-(2,3-difluorophenyl)isoxazolidin-2-yl)-N-(2-methoxy-5-(1-methyl-1H-pyrazol-4-yl)-4-(7-oxa-2-azaspiro[3.5]nonan-2-yl)phenyl)pyrimidin-4-amine]
25 | 100 to 1000 nM | CN1CCN(C2CCN(c3c(-c4cnn(C)c4)cc(Nc4cc(N5OCC[C@@H]5c5cccc(F)c5F)ncn4)c4c3CCO4)CC2)CC1 [Example 112, (R)-6-(3-(2,3-difluorophenyl)isoxazolidin-2-yl)-N-(5-(1-methyl-1H-pyrazol-4-yl)-4-(4-(4-methylpiperazin-1-yl)piperidin-1-yl)-2,3-dihydrobenzofuran-7-yl)pyrimidin-4-amine]
26 | < 100 nM | CN1CCN(c2c(-c3cnn(C)c3)cc(Nc3cc(N4OCC[C@@H]4c4cccc(F)c4F)ncn3)c3c2OCO3)CC1 [Example 113, (R)-6-(3-(2,3-difluorophenyl)isoxazolidin-2-yl)-N-(6-(1-methyl-1H-pyrazol-4-yl)-7-(4-methylpiperazin-1-yl)benzo[d][1,3]dioxol-4-yl)pyrimidin-4-amine]
